From patent US8758816B2, “Compositions comprising azelastine and methods of use thereof” (priority 2004, dated 2014)
“And” between values parts separate entries of the source, which are not always exact repeats. Identical values can stand only once. Counter-ions that a name gives are not always drawn.

System: patients with seasonal allergic rhinitis (SAR)
Test: MP 428 study: adverse events, Safety Population
Assay type: in vivo, human
Experimental: A two-week, randomized, double-blind study, which evaluated the effects of the co-administration of ASTELIN® (azelastine hydrochloride (HCl)) and FLONASE® (fluticasone propionate) compared to either product alone in patients with seasonal allergic rhinitis (SAR) was conducted during the 2006 Texas mountain cedar season. After a 5-day placebo lead-in period, 151 patients with moderate-to-severe allergic rhinitis symptoms were randomized to either: (1) (49 total patients) ASTELIN® (azelastine hydrochloride (HCl)) plus placebo saline nasal spray 2 sprays per nostril, 15 minutes apart, twice daily (AM & PM); (2) (50 total patients) FLONASE® (fluticasone propionate) plus placebo saline nasal spray, 2 sprays per nostril, 15 minutes apart, once daily (AM) and two sessions of placebo saline nasal spray, 2 sprays per nostril, 15 minutes apart (PM); or (3) (52 total patients) the co-administration of ASTELIN® (azelastine hydrochloride (HCl)) 2 sprays per nostril plus FLONASE® (fluticasone propionate) 2 sprays per nostril (AM), 15 minutes apart, and ASTELIN® (azelastine hydrochloride (HCl)) 2 sprays per nostril plus placebo saline nasal spray, 15 minutes apart, (PM) for a 2-week double-blind treatment period.
The most common adverse events (AEs) were bitter taste (8.2% in ASTELIN® (azelastine hydrochloride (HCl)) group, 2.0% in FLONASE® (fluticasone propionate) group, 13.5% in co-administration group) and headache (4.1% in ASTELIN® (azelastine hydrochloride (HCl)) group, 4.0% in FLONASE® (fluticasone propionate) group, 5.8% in co-administration group). No other AE was reported by more than one patient in any treatment group. There were no discontinuations due to AEs.

[1] = Total (possibly or probably related), Safety Population

SMILES: CN1CCCC(n2nc(Cc3ccc(Cl)cc3)c3ccccc3c2=O)CC1 (racemic) [Azelastine, (±)-1-(2H)-phthalazinone, 4-[(4-chlorophenyl)methyl]-2-(hexahydro-1-methyl-1H-azepin-4-yl)-, mono-hydrochloride]
- Treatment-Related Adverse Events: NERVOUS SYSTEM DISORDERS, Any Preferred Term [1]: 0 (0.0) No. of Patients (%)
- Treatment-Related Adverse Events: RESPIRATORY, THORACIC AND MEDIASTINAL DISORDERS, Any Preferred Term [1]: 0 (0.0) No. of Patients (%)
- Treatment-Related Adverse Events: STOMACH DISCOMFORT [1]: 0 (0.0) No. of Patients (%)
- Treatment-Emergent AE: DRY MOUTH (max severity Mild): 0 (0.0) No. of Patients (%)
- Treatment-Emergent AE: DYSGEUSIA (max severity Mild): 1 (2.0) No. of Patients (%)
- Treatment-Emergent AE: EAR AND LABYRINTH DISORDERS, Any Preferred Term (max severity Mild): 0 (0.0) No. of Patients (%)
- Treatment-Emergent AE: EAR PAIN (max severity Mild): 0 (0.0) No. of Patients (%)
- Treatment-Emergent AE: EPISTAXIS (max severity Mild): 0 (0.0) No. of Patients (%)
- Treatment-Emergent AE: GASTROINTESTINAL DISORDERS, Any Preferred Term (max severity Mild): 1 (2.0) No. of Patients (%)
- Treatment-Emergent AE: HEADACHE (max severity Mild): 1 (2.0) No. of Patients (%)
- Treatment-Emergent AE: MUSCULOSKELETAL AND CONNECTIVE TISSUE DISORDERS, Any Preferred Term (max severity Mild): 1 (2.0) No. of Patients (%)
- Treatment-Emergent AE: MYALGIA (max severity Mild): 0 (0.0) No. of Patients (%)
- Treatment-Emergent AE: NASAL DISCOMFORT (max severity Mild): 0 (0.0) No. of Patients (%)
- Treatment-Emergent AE: NECK PAIN (max severity Mild): 1 (2.0) No. of Patients (%)
- Treatment-Emergent AE: NERVOUS SYSTEM DISORDERS, Any Preferred Term (max severity Mild): 1 (2.0) No. of Patients (%)
- Treatment-Emergent AE: PHARYNGOLARYNGEAL PAIN (max severity Mild): 0 (0.0) No. of Patients (%)
- Treatment-Emergent AE: RESPIRATORY, THORACIC AND MEDIASTINAL DISORDERS, Any Preferred Term (max severity Mild): 0 (0.0) No. of Patients (%)
- Treatment-Emergent AE: STOMACH DISCOMFORT (max severity Mild): 0 (0.0) No. of Patients (%)
- Treatment-Emergent AE: Any Adverse Event (max severity Mild, mono-hydrochloride): 3 (6.1) No. of Patients (%) and 3 (0.1) No. of Patients (%)
- Treatment-Emergent AE: Any Adverse Event (max severity Moderate): 2 (4.1) No. of Patients (%)
- Treatment-Emergent AE: DRY MOUTH (max severity Moderate): 0 (0.0) No. of Patients (%)
- Treatment-Emergent AE: DYSGEUSIA (max severity Moderate): 0 (0.0) No. of Patients (%)
- Treatment-Emergent AE: EAR AND LABYRINTH DISORDERS, Any Preferred Term (max severity Moderate): 1 (2.0) No. of Patients (%)
- Treatment-Emergent AE: EAR PAIN (max severity Moderate): 1 (2.0) No. of Patients (%)
- Treatment-Emergent AE: EPISTAXIS (max severity Moderate): 0 (0.0) No. of Patients (%)
- Treatment-Emergent AE: GASTROINTESTINAL DISORDERS, Any Preferred Term (max severity Moderate): 0 (0.0) No. of Patients (%)
- Treatment-Emergent AE: HEADACHE (max severity Moderate): 1 (2.0) No. of Patients (%)
- Treatment-Emergent AE: MUSCULOSKELETAL AND CONNECTIVE TISSUE DISORDERS, Any Preferred Term (max severity Moderate): 0 (0.0) No. of Patients (%)
- Treatment-Emergent AE: MYALGIA (max severity Moderate): 0 (0.0) No. of Patients (%)
- Treatment-Emergent AE: NASAL DISCOMFORT (max severity Moderate): 0 (0.0) No. of Patients (%)
- Treatment-Emergent AE: NECK PAIN (max severity Moderate): 0 (0.0) No. of Patients (%)
- Treatment-Emergent AE: NERVOUS SYSTEM DISORDERS, Any Preferred Term (max severity Moderate): 1 (2.0) No. of Patients (%)
- Treatment-Emergent AE: PHARYNGOLARYNGEAL PAIN (max severity Moderate): 1 (2.0) No. of Patients (%)
- Treatment-Emergent AE: RESPIRATORY, THORACIC AND MEDIASTINAL DISORDERS, Any Preferred Term (max severity Moderate): 1 (2.0) No. of Patients (%)
- Treatment-Emergent AE: STOMACH DISCOMFORT (max severity Moderate): 0 (0.0) No. of Patients (%)
- Treatment-Emergent AE: Any Adverse Event (max severity Severe): 3 (6.1) No. of Patients (%)
- Treatment-Emergent AE: DRY MOUTH (max severity Severe): 0 (0.0) No. of Patients (%)
- Treatment-Emergent AE: DYSGEUSIA (max severity Severe): 3 (6.1) No. of Patients (%)
- Treatment-Emergent AE: EAR AND LABYRINTH DISORDERS, Any Preferred Term (max severity Severe): 0 (0.0) No. of Patients (%)
- Treatment-Emergent AE: EAR PAIN (max severity Severe): 0 (0.0) No. of Patients (%)
- Treatment-Emergent AE: EPISTAXIS (max severity Severe): 0 (0.0) No. of Patients (%)
- Treatment-Emergent AE: GASTROINTESTINAL DISORDERS, Any Preferred Term (max severity Severe): 3 (6.1) No. of Patients (%)
- Treatment-Emergent AE: HEADACHE (max severity Severe): 0 (0.0) No. of Patients (%)
- Treatment-Emergent AE: MUSCULOSKELETAL AND CONNECTIVE TISSUE DISORDERS, Any Preferred Term (max severity Severe): 0 (0.0) No. of Patients (%)
- Treatment-Emergent AE: MYALGIA (max severity Severe): 0 (0.0) No. of Patients (%)
- Treatment-Emergent AE: NASAL DISCOMFORT (max severity Severe): 0 (0.0) No. of Patients (%)
- Treatment-Emergent AE: NECK PAIN (max severity Severe): 0 (0.0) No. of Patients (%)
- Treatment-Emergent AE: NERVOUS SYSTEM DISORDERS, Any Preferred Term (max severity Severe): 0 (0.0) No. of Patients (%)
- Treatment-Emergent AE: PHARYNGOLARYNGEAL PAIN (max severity Severe): 0 (0.0) No. of Patients (%)
- Treatment-Emergent AE: RESPIRATORY, THORACIC AND MEDIASTINAL DISORDERS, Any Preferred Term (max severity Severe): 0 (0.0) No. of Patients (%)
- Treatment-Emergent AE: STOMACH DISCOMFORT (max severity Severe): 0 (0.0) No. of Patients (%)
- adverse event: bitter taste (share of treatment group): 8.2%
- adverse event: headache (share of treatment group): 4.1%
